Structures can show the parent of a compound that is named as a salt.
Experiments:
Set-up in all cases: species or system Homo sapiens
[1] = Inhibition of purified PDGFR (unknown origin)
[2] = Inhibition of purified FGFR (unknown origin)
[3] = Inhibition of purified CDK2/Cyclin A (unknown origin)

Measured: IC50

C=CC(=O)Nc1cc2c(Nc3ccc(F)c(Cl)c3)ncnc2cc1OCCCN1CCOCC1 [CANERTINIB DIHYDROCHLORIDE]
> 50 µM: all assays above

From ChEMBL document CHEMBL5653597, “CI-1033, an irreversible pan-erbB receptor inhibitor and its potential application for the treatment of breast cancer” (Semin Oncol, 2003)
